Tests used:
Experiment in all cases: relative viability (nuclei count vs DMSO), 5 days (fraction); higher = more cells survive
Everolimus + AZD7762 = compound: CO[C@H]1C[C@@H]2CC[C@@H](C)[C@@](O)(O2)C(=O)C(=O)N2CCCC[C@H]2C(=O)O[C@H]([C@H](C)C[C@@H]2CC[C@@H](OCCO)[C@H](OC)C2)CC(=O)[C@H](C)/C=C(\C)[C@@H](O)[C@@H](OC)C(=O)[C@H](C)C[C@H](C)/C=C/C=C/C=C/1C [Everolimus] + NC(=O)Nc1cc(-c2cccc(F)c2)sc1C(=O)N[C@H]1CCCNC1 [AZD7762] (partner 0.2 µM)
Method in brief: (§1)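 Lung cancer cell lines in 1536-well plates got either a single drug or a fixed anchor-drug dose together with five library-drug doses (not always all listed) in √10 steps, by pin tool, on the day after seeding. Nuclei were counted after 5 days, and relative viability is the treated-to-vehicle ratio of nuclei counts. Values are medians of duplicate plates.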

Everolimus + Lapatinib = compound: CO[C@H]1C[C@@H]2CC[C@@H](C)[C@@](O)(O2)C(=O)C(=O)N2CCCC[C@H]2C(=O)O[C@H]([C@H](C)C[C@@H]2CC[C@@H](OCCO)[C@H](OC)C2)CC(=O)[C@H](C)/C=C(\C)[C@@H](O)[C@@H](OC)C(=O)[C@H](C)C[C@H](C)/C=C/C=C/C=C/1C [Everolimus] + CS(=O)(=O)CCNCc1ccc(-c2ccc3ncnc(Nc4ccc(OCc5cccc(F)c5)c(Cl)c4)c3c2)o1 [Lapatinib] (partner 2 µM)
Method in brief: as §1

Everolimus + Decitabine = compound: CO[C@H]1C[C@@H]2CC[C@@H](C)[C@@](O)(O2)C(=O)C(=O)N2CCCC[C@H]2C(=O)O[C@H]([C@H](C)C[C@@H]2CC[C@@H](OCCO)[C@H](OC)C2)CC(=O)[C@H](C)/C=C(\C)[C@@H](O)[C@@H](OC)C(=O)[C@H](C)C[C@H](C)/C=C/C=C/C=C/1C [Everolimus] + Nc1ncn([C@H]2C[C@H](O)[C@@H](CO)O2)c(=O)n1 [Decitabine] (partner 2 µM)
Method in brief: as §1

Everolimus + Bortezomib = compound: CO[C@H]1C[C@@H]2CC[C@@H](C)[C@@](O)(O2)C(=O)C(=O)N2CCCC[C@H]2C(=O)O[C@H]([C@H](C)C[C@@H]2CC[C@@H](OCCO)[C@H](OC)C2)CC(=O)[C@H](C)/C=C(\C)[C@@H](O)[C@@H](OC)C(=O)[C@H](C)C[C@H](C)/C=C/C=C/C=C/1C [Everolimus] + CC(C)C[C@H](NC(=O)[C@H](Cc1ccccc1)NC(=O)c1cnccn1)B(O)O [Bortezomib] (partner 0.002 µM)
Method in brief: as §1

Cell Line	relative viability (Everolimus + AZD7762; first compound 0.01 µM)	relative viability (Everolimus + AZD7762; first compound 0.03162 µM)	relative viability (Everolimus + AZD7762; first compound 0.1 µM)	relative viability (Everolimus + AZD7762; first compound 0.3162 µM)	relative viability (Everolimus + AZD7762; first compound 1 µM)	relative viability (Everolimus + Lapatinib; first compound 0.01 µM)	relative viability (Everolimus + Lapatinib; first compound 0.03162 µM)	relative viability (Everolimus + Lapatinib; first compound 0.1 µM)	relative viability (Everolimus + Lapatinib; first compound 0.3162 µM)	relative viability (Everolimus + Lapatinib; first compound 1 µM)	relative viability (Everolimus + Decitabine; first compound 0.01 µM)	relative viability (Everolimus + Decitabine; first compound 0.03162 µM)	relative viability (Everolimus + Decitabine; first compound 0.1 µM)	relative viability (Everolimus + Decitabine; first compound 0.3162 µM)	relative viability (Everolimus + Decitabine; first compound 1 µM)	relative viability (Everolimus + Bortezomib; first compound 0.01 µM)	relative viability (Everolimus + Bortezomib; first compound 0.03162 µM)	relative viability (Everolimus + Bortezomib; first compound 0.1 µM)	relative viability (Everolimus + Bortezomib; first compound 0.3162 µM)	relative viability (Everolimus + Bortezomib; first compound 1 µM)
201T	0.466	0.476	0.407	0.421	0.47	0.911	1	0.852	0.882	0.938	0.758	0.757	0.635	0.705	0.716	1.01	1.01	0.956	0.927	0.953
A549						0.682	0.5	0.444	0.485	0.444	0.193	0.194	0.179	0.174	0.193					
A-427	0.498	0.527	0.587	0.446	0.595	0.811	0.902	0.645	0.768	0.85	0.436	0.509	0.45	0.486	0.561	0.783	0.891	0.778	0.742	0.768
ABC-1	0.667	0.479	0.747	0.702	0.89	0.925	1.13	0.751	0.816	0.873	0.637		0.603		0.883	0.272	0.3	0.304	0.285	0.293
BEN	0.377	0.394	0.417	0.41	0.444	0.366	0.302	0.28	0.34	0.377	0.574	0.412	0.546	0.442	0.583	0.326	0.367	0.299	0.333	0.328
CAL-12T	0.62	0.529	0.497	0.446	0.644	0.483	0.426	0.33	0.463	0.433						0.662	0.732	0.557	0.597	0.713
COR-L23						0.744	0.829	0.804	1.01	0.918	0.312	0.308	0.325	0.369	0.323	0.788	0.963	0.635	0.683	0.864
COR-L 105						0.351	0.288	0.316	0.38	0.262	0.516	0.529	0.522	0.502	0.548	0.593	0.476	0.445	0.565	0.584
Calu-6						0.987	1.02	0.907	0.927	0.994						0.91	0.9	0.901	0.937	0.78
ChaGo-K-1	0.799	0.917	0.743	0.769	0.866						0.5	0.478	0.461	0.419	0.458	0.992	0.909	0.993	0.955	1.01
EBC-1						0.23	0.218	0.208	0.184	0.25						0.344	0.406	0.314	0.424	0.255
EKVX		0.68	0.41	0.415	0.432	0.158	0.161	0.159	0.171	0.161		0.245	0.226	0.226	0.371	0.636	0.721	0.631	0.558	0.6
EMC-BAC-2	0.846	0.761	0.645	0.653	0.692	0.675	0.563	0.49	0.571	0.517	0.743	0.81	0.659		0.755	0.731	0.69	0.645	0.588	0.616
EPLC-272H	0.133	0.229	0.172	0.172	0.222	0.615	0.73	0.543	0.605	0.587	0.312	0.291	0.259	0.306	0.327	0.573	0.589	0.517	0.638	0.558
IA-LM						0.718	0.395	0.377	0.272	0.432						0.209	0.255	0.305	0.439	0.405
LCLC-103H	0.561	0.671	0.629	0.673	0.608						0.682	0.682	0.633	0.58	0.653	1.06	1.01	1.02	1.07	0.749
LK-2	0.213	0.197	0.173	0.186	0.208	0.664	0.533	0.787	0.471	0.449	0.268	0.156	0.19	0.194	0.193					
NCI-H358	0.358	0.361	0.396	0.18	0.325	0.309	0.338	0.377	0.345	0.295	0.204	0.195	0.218	0.19	0.205					
NCI-H441	0.97	1.17	0.717	0.953	1.01						0.257	0.243	0.194	0.261	0.29	0.364	0.497	0.504	0.457	0.506
NCI-H520						0.379	0.39	0.313	0.285	0.405	0.273	0.281	0.26	0.287	0.294	0.327	0.282	0.243	0.195	0.276

Cell Line	relative viability (Everolimus + AZD7762; first compound 0.01 µM)	relative viability (Everolimus + AZD7762; first compound 0.03162 µM)	relative viability (Everolimus + AZD7762; first compound 0.1 µM)	relative viability (Everolimus + AZD7762; first compound 0.3162 µM)	relative viability (Everolimus + AZD7762; first compound 1 µM)	relative viability (Everolimus + Lapatinib; first compound 0.01 µM)	relative viability (Everolimus + Lapatinib; first compound 0.03162 µM)	relative viability (Everolimus + Lapatinib; first compound 0.1 µM)	relative viability (Everolimus + Lapatinib; first compound 0.3162 µM)	relative viability (Everolimus + Lapatinib; first compound 1 µM)	relative viability (Everolimus + Decitabine; first compound 0.01 µM)	relative viability (Everolimus + Decitabine; first compound 0.03162 µM)	relative viability (Everolimus + Decitabine; first compound 0.1 µM)	relative viability (Everolimus + Decitabine; first compound 0.3162 µM)	relative viability (Everolimus + Decitabine; first compound 1 µM)	relative viability (Everolimus + Bortezomib; first compound 0.01 µM)	relative viability (Everolimus + Bortezomib; first compound 0.03162 µM)	relative viability (Everolimus + Bortezomib; first compound 0.1 µM)	relative viability (Everolimus + Bortezomib; first compound 0.3162 µM)	relative viability (Everolimus + Bortezomib; first compound 1 µM)
NCI-H522	0.622	0.64	0.579	0.651	0.686						0.594	0.677	0.517	0.684	0.537					
NCI-H661						0.358	0.428	0.341	0.276	0.299	0.429	0.429	0.428	0.435	0.397	0.592	0.572	0.518	0.421	0.386
NCI-H1299						0.975	1.06	0.974	0.994	1						1.04	1.08	1.02	1.07	1.1
NCI-H1395	0.394	0.374	0.335	0.405	0.339	0.886	0.755	0.585	0.614	0.869	0.59	0.6	0.563	0.574	0.6					
NCI-H1563						0.785	0.839	0.758	0.769	0.817						0.665	0.724	0.762	0.715	0.704
NCI-H1648	0.622	0.634	0.631	0.735	1.02						0.484	0.423	0.383	0.405	0.399					
NCI-H1650						0.615	0.707	0.645	0.742	0.489	0.472	0.389	0.556	0.406	0.573	0.196	0.186	0.179	0.243	0.199
NCI-H1703				0.132	0.121	0.569	0.481	0.548	0.489	0.847						0.183	0.178	0.212	0.213	0.186
NCI-H1793	0.242	0.244	0.259	0.21	0.197	0.316	0.337	0.378	0.352	0.278	0.283	0.262	0.339	0.344	0.263					
NCI-H1944	0.341	0.437	0.354	0.325	0.306	0.633	0.669	0.617	0.604	0.541	0.409	0.409	0.386	0.396	0.355					
NCI-H2009						0.853	0.782	0.441	0.878	0.877	0.295	0.313	0.382	0.288	0.377	0.739	0.863	0.484	0.864	0.812
NCI-H2023						0.604	0.456	0.378	0.616	0.314	0.204	0.21	0.198	0.199	0.168	0.667	0.527	0.534	0.615	0.335
NCI-H2170	0.367	0.403	0.334	0.374	0.401	0.214	0.242	0.228	0.222	0.247	0.287	0.274	0.257	0.28	0.262					
NCI-H2228						0.89	0.7	0.705	0.582	0.793						0.705	0.7	0.645	0.515	0.614
NCI-H2342	0.394	0.331	0.382	0.376	0.461						0.652	0.534	0.474	0.512	0.537					
SK-LU-1						0.638	0.624	0.576	0.49	0.61	0.411	0.474	0.474	0.516	0.524	0.674	0.742	0.909	0.618	0.769
SK-MES-1						0.358	0.384	0.326	0.384	0.325	0.346	0.362	0.335	0.345	0.501					
SW 900	0.362	0.33	0.285	0.36	0.427						0.434	0.404	0.4	0.406	0.439					
SW 1573						0.649	0.705	0.627	0.686	0.572	0.268	0.331	0.298	0.306	0.338	0.707	0.512	0.602	0.491	0.636
UMC-11						0.373	0.326	0.306	0.433	0.438	0.329	0.359	0.352	0.367	0.392	0.325	0.34	0.301	0.356	0.362

Reference: the supplement of paper PMC10307832
